US11911394B2, “Compound and method for the prevention of transmission of influenza virus” (Hoffmann-La Roche Inc., priority 2019, dated 2024)
Where two headings read alike, the source gives them in different places.

Assay: Example 2 antiviral pharmacokinetic analysis, endpoint donor plasma
Assay type: in vivo
Conditions: ferret, sc, 4 mg/kg, 4 mg/kg s.c., read-out: baloxavir in plasma ±SD
Description: The active form baloxavir acid (S-033447, hereafter BXA) and pro-drug oseltamivir phosphate (hereafter OST) was kindly provided by Shionogi & Co., Ltd., Japan. The vehicle for BXA delivery was methyl cellulose (Sigma-Aldrich, Australia) in 0.5 w/v % aqueous solution prepared with sterile water (hereafter MC solution). BXA in suspension with MC solution (1 mg/mL) was prepared using an agate mortar and pestle, and was delivered to reversibly anaesthetised animals in a single treatment consisting of 4 subcutaneous injections at 4 locations on the dorsal region (total dose 4 mg/kg per animal). Animals in the placebo group were dosed identically using MC solution (1 mL/kg) alone. OST doses (10 mg/mL) were prepared in sugar solution (1 g/mL) and delivered bis in die (8 hr interval) to non-sedated ferrets by the oral route (total dose 10 mg/kg/day).
Endpoint BXA and placebo-treated donor blood samples were collected in heparinised tubes, and plasma isolated by centrifugation. Plasma samples were stored at −80° C. until transport to analytical facilities at Shionogi & Co., Ltd.
Experiment 1: Antiviral treatment for all donors commenced at 1 DPI, and naïve recipient ferrets were co-housed immediately following treatment. Body weight and temperature were monitored daily from all animals. Daily nasal wash samples were collected 1 mL of PBS from 1 DPI to 3 DPI for donor animals, and 1 day post exposure (DPE) to 10 DPE for recipient animals. Donors were sacrificed at 3 DPI (2 DPE), and blood was collected from BXA- and placebo-treated ferrets by cardiac puncture. Recipients were sacrificed at 10 DPE.
Experiment 2: Antiviral treatment commenced at 1 DPI, and recipient co-housing was delayed until 24 hr following treatment (2 DPI). Body weight and temperature were monitored daily from all animals. […]
Experiment 3: Antiviral treatment commenced at 2 DPI, and recipients were co-housed immediately afterwards. Body weight and temperature were monitored daily from all animals. […]

O=C1c2c(O)c(=O)ccn2N([C@@H]2c3ccccc3SCc3c2ccc(F)c3F)[C@@H]2COCCN12 [baloxavir, baloxavir acid]
concentration at 48 h (Example 2 Experiment 1, 48 hours post treatment): 10.2 ± 2.8 ng/mL | concentration at 72 h (Example 2 Experiment 2, 72 hr post treatment): 12.5 ± 2.4 ng/mL | concentration at 72 h (Example 2 Experiment 3, 72 hr post treatment (so in the source)): 24.5 ± 4.03 ng/mL
